A word on the GI50: it is the concentration at which growth is held to half of that of the control.

The values that follow come from patent US20140066394A1, “Substituted 6-(Benzylamino) Purine Riboside Derivatives, Use Thereof and Compositions Containing These Derivatives” (Biopatterns, S.R.O, priority 2009, published 2014).

For experiment [1], the system named is human skin melanoma G-361. As to the kind of experiment: In vitro cytotoxicity, Calcein AM assay, G-361. The class given is cell-based. The following applies: 72 hours. An excerpt: (§1) Low cytotoxicity of the compounds is the major property determining the cosmetic use. One of the parameters used, as the basis for cytotoxicity assays, is the metabolic activity of viable cells. For example, a microtiter assay, which uses the Calcein AM, is now widely used to quantitate cell proliferation and cytotoxicity. For instance, this assay is used in drug screening programs and in chemosensitivity testing. Because only metabolically active cells cleave Calcein AM, these assays detect viable cells exclusively. The quantity of […] Calcein AM corresponds to the number of vital cells in the culture.
(§2) Human T-lymphoblastic leukemia cell line CEM; promyelocytic HL-60 and monocytic U937 leukemias; breast carcinoma cell lines MCF-7, BT549, MDA-MB-231; glioblastoma U87MG cells; cervical carcinoma cells HELA; sarcoma cells U2OS and Saos2; hepatocellular carcinoma HepG2; mouse fibroblasts NIH3T3; mouse immortalized bone marrow macrophages B2.4 and B10A.4; P388D1 and L1210 leukemia; B16 and B16F10 melanomas; human osteosarcoma HOS; human myeloid leukemia K-562; human skin melanoma G-361 were used for routine screening of compounds. The cells were maintained in Nunc/Corning 80 cm^2 plastic tissue culture flasks and cultured in cell culture medium (DMEM with 5 g/l glucose, 2 mM glutamine, 100 U/mL penicillin, 100 μg/mL streptomycin, 10% fetal calf serum and sodium bicarbonate).
(§3) The cell suspensions that were prepared and diluted according to the particular cell type and the expected target cell density (2.500-30.000 cells per well based on cell growth characteristics) were added by pipette ([…]) into 96/well microtiter plates. Inoculates were allowed a pre-incubation period of 24 hours at 37° C. and 5% CO2 for stabilisation. Four-fold dilutions of the intended test concentration were added at time zero in 20 μl aliquots to the microtiter plate wells. Usually, the compound tested was evaluated at six 4-fold dilutions. In routine testing, the highest well concentration was 100 μM, but it can be the matter of change dependent on the agent. All drug concentrations were examined in duplicates. Incubations of cells with the tested compounds lasted for 72 hours at 37° C., in 5% CO2 atmosphere and 100% humidity. At the end of the incubation period, the cells were assayed by using Calcein AM. Ten microliters of the stock solution were pipetted into each well and incubated for 1 hour. Fluorescence (FD) was measured with the Labsystem FIA Reader Fluoroscan Ascent (UK). The tumour cell survival (GI50) was calculated using the following equitation: TCS=(FDdrug exposed well/mean FDeontrol wells)×100%. The GI50 value, the drug concentration lethal to 50% of the tumour cells, was calculated from the obtained dose response curves.
(§4) Zero cytotoxicity of the novel compounds is the basic prerequisite for agricultural and tumor-unrelated applications. The cytoxicity of the novel compounds was tested on a panel of cell lines of different histogenetic and species origin (Table 9). We show herein that equal activities were found in all tumour cell lines tested, however, the non-malignant cells, e.g. NIH3T3 fibroblasts and normal human lymphocytes, were resistant to 2,6-disubstituted purine ribosides induced cytotoxicity. The compounds listed in Tab. 9 can be divided into 2 groups. The first group contains “classical cytokinins” represented by 6-substituted purine ribosides (which are known in the prior art). The second group contains the novel 2,6-disubstituted derivatives of these compounds. […] GI50 for NIH3T3 fibroblasts and normal human lymphocytes was always higher than 100 μM. The novel derivatives show no toxicity to normal and tumour cells in concentrations about 100 μM and thus are more suitable for agricultural applications than “classical cytokinins” (6-substituted purine riboside derivatives).

Experiment [2] deals with Human T-lymphoblastic leukemia cell line CEM. Put plainly: In vitro cytotoxicity, Calcein AM assay, CEM. It counts as cell-based. The conditions noted are these: 72 hours.
From the text: as §1, §2, §3, §4

Experiment [3] deals with breast carcinoma cell line MCF-7. As to the kind of experiment: In vitro cytotoxicity, Calcein AM assay, MCF7. It counts as cell-based, human. The following applies: 72 hours.
From the text: as §1, §2, §3, §4

Experiment [4] relates to human myeloid leukemia K-562. As to the kind of experiment: In vitro cytotoxicity, Calcein AM assay, K-562. The class given is cell-based. The conditions noted are these: 72 hours.
From the text: as §1, §2, §3, §4

The subject of experiment [5] is promyelocytic HL-60 leukemia. Put plainly: In vitro cytotoxicity, Calcein AM assay, HL60. The class given is cell-based, human. The following applies: 72 hours.
From the text: as §1, §2, §3, §4

Experiment [6] relates to human osteosarcoma HOS. Put plainly: In vitro cytotoxicity, Calcein AM assay, HOS. The class given is cell-based. The following applies: 72 hours.
From the text: as §1, §2, §3, §4

Experiment [7] deals with β-adrenergic receptors. Put plainly: Isoproterenol-induced cAMP synthesis in rat C6 glioma (anti-inflammatory activity). The following applies: for Effect (modulation of isoproterenol-induced cAMP synthesis): added simultaneously with (−)-isoproterenol; for IC50: cellular cAMP by enzyme immunoassay, dose-response curve in duplicate, read-out: I50. It counts as cell-based. The method, then: Anti-inflammatory activity of several of the 2-substituted 6-benzylaminopurine riboside derivatives of this invention was determined; kinetin riboside was also evaluated as a control. Rat C6 glioma (ATCC No. CCL107) was cultivated in monolayer in serum-free chemically defined medium containing Ham's F10/minimal essential medium (1:1 v/v), 2 mM L-glutamine, 1% (v/v) minimal essential medium vitamins (100×), 1% (v/v) minimal essential medium nonessential amino acids (100×), 100 U/mL penicillin, […], and 30 nM sodium selenite. Incubation was performed at 37° C. in a humidified atmosphere. The assays were performed in the logaritmic growth phase at a density of 2.5×10^5 cells/cm^2.
Intracellular cAMP synthesis was induced by addition of 5 mM (−)-isoproterenol; various amounts of test compounds were added at the same time as the (−)-isoproterenol. After […] incubation at 37° C., the medium was removed and the cellular amount of cAMP was determined using the cAMP-enzyme immunoassay kit from Amersham. The I50 value was determined from a dose-response curve in duplicate. The effect of nine purine analogues was measured after simultaneous addition with isoproterenol.
As P2Y1-like and A2 purinergic receptors, negatively and positively coupled to adenylate cyclase respectively, are present on rat C6 glioma as to be determined if the modulation of the synthesis of cAMP is due to inhibition of the activation of β-adrenergic receptors by isoproterenol are due to activation of purinergic receptors.

Experiment [8] deals with cytokinin-dependent tobacco callus Nicotiana tabacum L. cv. Wisconsin 38. As to the kind of experiment: Tobacco callus bioassay (stimulation of plant cell division). The conditions noted are these: for concentration with highest activity: increase of fresh callus weight after four weeks, tested 10^−8 M to 10^−4 M; for activity (%) [10^−5 mol · l^−1 C = 100%]: relative activity at the concentration with highest activity, kinetin riboside at 10^−5 mol/l = 100%. The class given is cell-based. The method, then: Cytokinin-dependent tobacco callus Nicotiana tabacum L. cv. Wisconsin 38 was maintained at 25° C. in darkness on modified MS medium, containing per 1 liter: 4 μmol of nicotinic acid, 2.4 μmol of pyridoxine hydrochloride, 1.2 μmol of thiamine, 26.6 μmol of glycine, 1.37 μmol of glutamine, 1.8 μmol of myo-inositol, 30 g of sucrose, 8 g of agar, 5.37 μmol of NAA and 0.5 μmol of the compound tested. Subcultivation was carried out every three weeks. Fourteen days before the bioassay, the callus tissue was transferred to the media without the compound tested. The biological activity was determined from the increase of the fresh callus weight after four weeks of cultivation. Five replicates were prepared for each concentration of the compound tested and the entire test was repeated twice. From the obtained data, the concentration with the highest activity was selected for each compound tested. Relative activity of the compound at this concentration was calculated (Table 8). The compounds to be tested were dissolved in dimethylsulfoxide (DMSO) and the solution brought up to 10^−3M with distilled water. […] The compounds listed in Table 8 are compared to a “classical cytokinin” kinetin riboside (compound known in the prior art—C=control).

Turning to `COc1cccc(CNc2ncnc3c2ncn3C2OC(CO)C(O)C2O)c1O` (centres unmarked) [2-hydroxy-3-methoxybenzylamino, reference compound], the GI50 in experiment [1] is over 100 µM; in experiment [2], 40 µM; in experiment [3], over 100 µM; in experiment [4], over 100 µM; in experiment [5] it was 9.5 µM; in experiment [6], over 100 µM.

With `COc1ccc(CNc2ncnc3c2ncn3[C@@H]2O[C@H](CO)[C@@H](O)[C@H]2O)c(O)c1` [2-hydroxy-4-methoxybenzylamino, reference compound], the GI50 in experiment [1] is over 100 µM; in experiment [2], 0.3 µM; in experiment [3], 20 µM; in experiment [4] it was 28 µM; in experiment [5] it was 0.15 µM; in experiment [6], over 100 µM.

In the case of `OCC1OC(n2cnc3c(NCc4cc(Cl)ccc4O)ncnc32)C(O)C1O` (centres unmarked) [2-hydroxy-5-chlorobenzylamino, reference compound], the GI50 in experiment [1] was over 100 µM; in experiment [2] it was 2.4 µM; in experiment [3], 32 µM; in experiment [4] it was 36 µM; in experiment [5] it was 1.6 µM; in experiment [6], over 100 µM.

As for `OC[C@H]1O[C@@H](n2cnc3c(NCc4cc(F)ccc4O)ncnc32)[C@H](O)[C@@H]1O` [2-hydroxy-5-fluorobenzylamino, reference compound], the GI50 in experiment [1] is over 100 µM; in experiment [2] it was 52 µM; in experiment [3] it was over 100 µM; in experiment [4], over 100 µM; in experiment [5] it was 24 µM; in experiment [6], over 100 µM.

`Cc1ccc(O)c(CNc2ncnc3c2ncn3C2OC(CO)C(O)C2O)c1` (centres unmarked) [2-hydroxy-5-methylbenzylamino, reference compound]: the GI50 is over 100 µM in experiment [1]; 0.9 µM in experiment [2]; 6.9 µM in experiment [3]; 18 µM in experiment [4]; 10 µM in experiment [5]; over 100 µM in experiment [6].

On to `COc1c(O)cccc1CNc1ncnc2c1ncn2[C@@H]1O[C@H](CO)[C@@H](O)[C@H]1O` [2-methoxy-3-hydroxybenzylamino, reference compound], for which the concentration for 50% growth inhibition (GI50) in experiment [1] was over 100 µM; in experiment [2], 1.9 µM; in experiment [3], over 100 µM; in experiment [4], 16.5 µM; in experiment [5], 10 µM; in experiment [6], over 100 µM.

With `OC[C@H]1O[C@@H](n2cnc3c(NCc4ccco4)ncnc32)[C@H](O)[C@@H]1O` [C, kinetin riboside, reference compound], the “Effect (modulation of isoproterenol-induced cAMP synthesis)” value (from here on “Effect”) was “inactive” in experiment [7] and “none” in experiment [7] (listed as control). Moreover, the “concentration with highest activity” value in experiment [8] is on record as 10^−5 mol · l^−1. In experiment [8], the “activity (%) [10^−5 mol · l^−1 C = 100%]” value amounted to 100%.

As to `COc1ccc(CNc2nc(Cl)nc3c2ncn3C2OC(CO)C(O)C2O)c(O)c1` (centres unmarked) [Compound 11], the GI50 in experiment [1], in experiment [2], in experiment [3], in experiment [4], in experiment [5] and in experiment [6] was over 100 µM each time.

In the case of `Cc1cccc(CNc2nc(Cl)nc3c2ncn3C2OC(CO)C(O)C2O)c1O` (centres unmarked) [Compound 13], the concentration for 50% growth inhibition (GI50) in experiment [1], in experiment [2], in experiment [3], in experiment [4], in experiment [5] and in experiment [6] was over 100 µM each time. The “Effect” value in experiment [7] was “inhibition”. The IC50 in experiment [7] worked out at 18.7 ± 4 µM.

`COc1c(O)cccc1CNc1nc(Cl)nc2c1ncn2C1OC(CO)C(O)C1O` (centres unmarked) [Compound 21]: the GI50 in experiment [1], in experiment [2], in experiment [3], in experiment [4], in experiment [5] and in experiment [6] was over 100 µM each time.

For `OCC1OC(n2cnc3c(NCc4ccc(F)cc4F)nc(Cl)nc32)C(O)C1O` (centres unmarked) [Compound 32], in experiment [8], the “concentration with highest activity” value is given as 10^−6 mol · l^−1 and the “activity (%) [10^−5 mol · l^−1 C = 100%]” value is recorded as 109.7 (±12) %.

Take `OCC1OC(n2cnc3c(NCc4c(F)ccc(F)c4F)nc(Cl)nc32)C(O)C1O` (centres unmarked) [Compound 33]: in experiment [8], the “concentration with highest activity” value is listed as 10^−6 mol · l^−1 and the “activity (%) [10^−5 mol · l^−1 C = 100%]” value is on record as 105.1 (±2) %.

In the case of `COc1cccc(CNc2nc(F)nc3c2ncn3C2OC(CO)C(O)C2O)c1O` (centres unmarked) [Compound 40], in experiment [7], the “Effect” value is on record as “inhibition” and the IC50 is 4.2 ± 2 µM.

Regarding `OCC1OC(n2cnc3c(NCc4cc(Cl)ccc4O)nc(F)nc32)C(O)C1O` (centres unmarked) [Compound 49], in experiment [7], the “Effect” value was “inhibition” and the IC50 amounted to 10.8 ± 3 µM. Further, in experiment [8], the “concentration with highest activity” value is 10^−6 mol · l^−1 and the “activity (%) [10^−5 mol · l^−1 C = 100%]” value is 112 (±8) %.

`OCC1OC(n2cnc3c(NCc4cc(F)ccc4O)nc(F)nc32)C(O)C1O` (centres unmarked) [Compound 50]: in experiment [7], the “Effect” value was “inhibition” and the IC50 came to 13.6 ± 3 µM.

Consider `CSc1nc(NCc2ccc(F)cc2F)c2ncn(C3OC(CO)C(O)C3O)c2n1` (centres unmarked) [Compound 97], for which, in experiment [8], the “concentration with highest activity” value is reported as 10^−6 mol · l^−1 and the “activity (%) [10^−5 mol · l^−1 C = 100%]” value is given as 107 (±8) %.
